According to US8802929B2, “MIR164 gene that controls plant root system development and fertility and use thereof” (Huazhong Agricultural University, priority 2009, dated 2014):

Legend:
[1] = system: transgenic plants overexpressing miR164; assay: Restoration of fertility of transgenic plants overexpressing miR164 by external application of hormones; format: in vivo, rice; conditions: two T0 transgenic plants; four phytohormones (IAA, NAA, KT, 6-BA) applied continually from tillering stage to grain filling stage; FIG. 7
Text: Two T0 transgenic plants overexpressing miR164 were continually subjected to external application of four phytohormones, indoleacetic acid (IAA), naphthaleneacetic acid (NAA), kinetin (KT), and 6-benzylaminopurine (6-BA) from tillering stage to grain filling stage, and compared with the transgenic plants overexpressing miR164 grown normally. […] That the fertility of transgenic rice plants overexpressing miR164 could be restored by external application of hormones can be taken advantage of to conveniently use a transgenic rice plant to breed a sterile line (without application of hormones) or a maintainer line (by external application of hormones to allow the sterile line to produce seeds and to be reproduced; however the next generation is still sterile without externally applied hormones), thereby achieving “the double usage of a single line” for the breeding of hybrid rice.

miR164 = assay: Expression level of mature miR164 after phytohormone treatment, Northern blotting; format: in vivo, rice variety Minghui 63 (Oryza sativa L. ssp. Indica); conditions: hormone sprayed onto rice plants at 4-leaf stage; for change in expression of miR164 after phytohormone treatment: leaves, Northern blotting, FIG. 3
Protocol: The indica rice variety “Minghui 63” was used for expression profile analysis. Phytohormone treatment was carried out by evenly spraying the hormones onto the surfaces of the rice plants at the 4-leaf stage obtained from seeds which had been induced to germinate and cultivated under normal growth conditions for 18-20 days. The plants treated with kinetin and gibberellin were sampled before treatment as well as 1 min, 5 min, 10 min, 20 min, 30 min, 1 h, and 3 h after treatment. The plants treated with naphthaleneacetic acid were sampled before treatment as well as 30 min, 3 h, 9 h and 24 h after treatment. The plants treated with brassinolide were sampled before treatment as well as 15 min, 30 min, 1 h, 3 h, 6 h, 9 h and 21 h after treatment. Light treatment of etiolated shoots was performed by subjecting seeds to induction of germination and continuous cultivation in dark for 14 days followed by transferring the etiolated shoots to normal lighting conditions. Samples were taken before light treatment as well as 3 h, 6 h and 9 h after light treatment. Total RNA was extracted from leaves using Trizol reagent (Invitrogen Corp.), and then transferred to membrane as described by Xie et al. (Xie K, Wu C, and Xiong L. Genomic organization, differential expression, and interaction of SQUAMOSA promoter-binding-like transcription factors and microRNA156 in rice. Plant Physiol, 2006, 142: 280-293). Northern hybridization was performed using miR164 as the probe. […] The expression level of miR164 increased 24 hours after naphthaleneacetic acid (NAA) treatment.

rice root system = assay: Root system phenotype of transgenic plants overexpressing miR164 on 1/2 MS medium; format: in vivo; conditions: overexpression under ubiquitin promoter; 10 days on 1/2 MS basal media; FIG. 5
Protocol: In this example, transgenic plants overexpressing miR164 (FIG. 4) and wild-type plants were grown in ½ MS medium and observed for their phenotypes. The procedure was carried out as follows, Rice seeds from transgenic lines overexpressing miR164 were husked and disinfected (75% alcohol treatment for 3 minutes followed by 0.15% HgCl2 treatment for 30 minutes, and rinsed with sterile water for several times), and then allowed to germinate on the ½ MS basal media containing 50 mg/L hygromycin. One day later, the rice seeds from wild-type control lines were placed on the ½ MS basal media without hygromycin and allowed to germinate. Two to three days later, well germinated and consistently grown seeds were transferred to ½ MS basal media and cultivated in an illumination incubator (which simulated natural growth condition of 14-hour light and 10-hour darkness) for 10 days for phenotype observation. More than 30 plants were selected for each of the transgenic and wild-type plant lines, and each experiment was run in triplicate.

rice pollens = assay: Fertility phenotype of transgenic plants overexpressing miR164 (iodine staining of pollens); format: in vivo; conditions: overexpression under ubiquitin promoter; FIG. 6
Text: This abnormality made the glumes unable to open such that the filaments, although elongated, could not extend out of the glumes (FIG. 6B). […] Moreover, the ovaries of most of the transgenic plants overexpressing miR164 stopped growing or even died (FIG. 6C to 6E). The development of anthers in the transgenic plants overexpressing miR164 was abnormal. […] The pollens of the transgenic plants overexpressing miR164 were not in the normal globular shape, but were shrunken (FIG. 6F to 6K). […] The sterility of the transgenic plants overexpressing miR164 could be utilized to conveniently breed a rice sterile line for hybrid rice breeding.

| Molecule | seed production of transgenic plants overexpressing miR164 after external application of hormones [1] | change in expression of miR164 after phytohormone treatment (miR164) | further results |
| --- | --- | --- | --- |
| c1ccc(CNc2ncnc3nc[nH]c23)cc1 [6-benzylaminopurine, 6-Benzylaminopurine] | produce seeds normally | – | – |
| c1coc(CNc2ncnc3[nH]cnc23)c1 [Kinetin] | produce seeds normally | decreased gradually | – |
| CC(C)[C@H](C)[C@@H](O)[C@H](O)[C@@H](C)[C@H]1CC[C@H]2[C@@H]3COC(=O)[C@H]4C[C@H](O)[C@H](O)C[C@]4(C)[C@H]3CC[C@]12C [brassinolide] | – | no obvious change | – |
| O=C(O)Cc1c[nH]c2ccccc12 [indoleacetic acid, Indole-3-acetic acid] | produce seeds normally | – | – |
| gibberellin | – | increased | time of peak miR164 expression after treatment (miR164; then dropping to the level before treatment): 10 min |
| miR164: mature microRNA (SEQ ID NO: 2) from the rice miR164 gene (SEQ ID NO: 1), overexpressed in rice under a ubiquitin promoter (UGGAGAAGCAGGGCACGUGCA; listed as Oryza sativa) | – | – | root system of transgenic plants versus wild-type plants (rice root system): obviously larger root systems; pollen fertility of transgenic plants (iodine staining) (rice pollens): completely sterile |
